The results in this text go back to US10501459B2, “Substituted imidazo[1,2-a]pyridines as bromodomain inhibitors” (NEOMED Institute, priority 2015, dated 2019).

The first test has as its system human C-Myc gene transcription in MV-4-11 cells. The test is described as follows: Transcription of human C-Myc in human leukemic MV-4-11 cells (QuantiGene 2.0). Type of test: cell-based. The settings on record: Homo sapiens, MV4-11, 4 h, inhibition of C-Myc mRNA, 4 hours treatment. The protocol:
b) Transcription of Human C-Myc in Human Leukemic MV-4-11 Cells:
The effect of compounds on transcription of human C-Myc gene is monitored in human B-myelomonocytic leukemia cell line MV-4-11 (from American Type Culture Collection (ATCC), Manassas, Va., USA) using QuantiGene 2.0 assay kit (Affymetrix, Santa Clara, Calif., USA).
Typically, 8,000 MV-4-11 cells are plated in sterile 96-well plates (Costar #3598 from Fisher Scientific Canada, Ottawa, Ontario, Canada) in Iscove's medium supplemented with 10% fetal bovine serum, glutamine (2 mM), and penicillin (100 I.U.) and streptomycin (100 μg/mL) (all from Wisent Inc., St. Bruno, Quebec, Canada). Compounds are dissolved in DMSO at 30 mM. A series of 1:3 dilutions are first made in DMSO, and further […] dilutions are made in serum-containing cell culture media. The final concentration of DMSO is […] in cell culture media. After cells are treated with various concentrations of test compound for 4 hours, cells are lysed using Quantigene 2.0 sample processing kit (#QS0100). C-Myc mRNA is detected using a QuantiGene 2.0 assay kit (#QS0009) with gene-specific probe to human C-Myc (#SA-50182) following the manufacturer's recommendations. Luminescene signals are read on Flexstation II microplate reader (Molecular Devices, Sunnyvale, Calif., USA). Percentage of inhibition of C-Myc transcription is analyzed using EXCEL (2010 version).
In turn, `Cc1cc(-c2ccc3ncc(S(=O)(=O)N(C)C4CCOC4)n3c2)cn(C)c1=O` (single isomer, unassigned) [Compound 47, 6-(1,5-dimethyl-6-oxo-1,6-dihydropyridin-3-yl)-N-methyl-N-(tetrahydrofuran-3-yl)imidazo[1,2-a]pyridine-3-sulfonamide] yielded an IC50 of 0.731 µM.

As for `Cc1cc(-c2ccc3ncc(S(=O)(=O)NC4CCOC4)n3c2)cn(C)c1=O` (single isomer, unassigned) [Compound 52, 6-(1,5-dimethyl-6-oxo-1,6-dihydropyridin-3-yl)-N-(tetrahydrofuran-3-yl) imidazo[1,2-a]pyridine-3-sulfonamide], the IC50 came out at 0.891 µM.

As to `COC(c1ccccc1)c1cnc2ccc(-c3cc(C)c(=O)n(C)c3)cn12` (stereo not drawn) [Compound 7, 5-[3-[methoxy(phenyl)methyl]imidazo[1,2-a]pyridin-6-yl]-1,3-dimethyl-pyridin-2-one], the IC50 stood at 0.0928 µM.

`Cc1cc(-c2ccc3ncc(C(=O)N4CCOCC4)n3c2)cn(C)c1=O` [Compound 11, 1,3-dimethyl-5-(3-(morpholine-4-carbonyl)imidazo[1,2-a]pyridin-6-yl) pyridin-2(1H)-one] yielded an IC50 of 2.73 µM. This IC50 is about 29-fold higher than that of the compound before.

Compound `Cc1cc(-c2ccc3ncc(C(=O)NC4CCCCC4)n3c2)cn(C)c1=O` [Compound 12, N-cyclohexyl-6-(1,5-dimethyl-6-oxo-1,6-dihydropyridin-3-yl)imidazo[1,2-a] pyridine-3-carboxamide] returned an IC50 of 0.912 µM.

Compound `Cc1cc(-c2ccc3ncc(C(=O)N4CCCCC4)n3c2)cn(C)c1=O` [Compound 13, 1,3-dimethyl-5-(3-(piperidine-1-carbonyl)imidazo[1,2-a]pyridin-6-yl)pyridin-2(1H)-one] displayed an IC50 of 2.66 µM.

`Cc1cc(-c2ccc3ncc(S(=O)(=O)N4CCCCC4)n3c2)cn(C)c1=O` [Compound 14, 1,3-dimethyl-5-(3-(piperidin-1-ylsulfonyl)imidazo[1,2-a]pyridin-6-yl)pyridin-2(1H)-one]: the IC50 turned out to be 0.508 µM.

Take `CCNS(=O)(=O)c1cnc2ccc(-c3cc(C)c(=O)n(C)c3)cn12` [Compound 15, 6-(1,5-dimethyl-6-oxo-1,6-dihydropyridin-3-yl)-N-ethylimidazo[1,2-a] pyridine-3-sulfonamide]: half-maximal inhibition (IC50) was put at 2.52 µM.

`Cc1cc(-c2ccc3ncc(S(=O)(=O)NC4CCCC4)n3c2)cn(C)c1=O` [Compound 16, N-cyclopentyl-6-(1,5-dimethyl-6-oxo-1,6-dihydropyridin-3-yl)imidazo[1,2-a]pyridine-3-sulfonamide] yielded an IC50 of 0.0813 µM. Compared with the last compound, the IC50 is about 31-fold lower.

The compound `Cc1cc(-c2ccc3ncc(S(=O)(=O)NC(C)C)n3c2)cn(C)c1=O` [Compound 17, 6-(1,5-dimethyl-6-oxo-1,6-dihydropyridin-3-yl)-N-isopropylimidazo [1,2-a] pyridine-3-sulfonamide] had an IC50 of 0.758 µM.

In turn, `Cc1cc(-c2ccc3ncc(S(=O)(=O)NC4CCCCC4)n3c2)cn(C)c1=O` [Compound 18, N-cyclohexyl-6-(1,5-dimethyl-6-oxo-1,6-dihydropyridin-3-yl)imidazo[1,2-a]pyridine-3-sulfonamide] gave an IC50 of 0.0937 µM.

Compound `Cc1cc(-c2ccc3ncc(S(=O)(=O)N4CCCC4)n3c2)cn(C)c1=O` [Compound 19, 1,3-dimethyl-5-(3-(pyrrolidin-1-ylsulfonyl)imidazo[1,2-a]pyridin-6-yl)pyridin-2(1H)-one] gave an IC50 of 0.17 µM.

Compound `Cc1cc(-c2ccc3ncc(CN4CCC(F)(F)CC4)n3c2)cn(C)c1=O` [Compound 20, 5-[3-[(4,4-difluoro-1-piperidyl)methyl]imidazo[1,2-a]pyridin-6-yl]-1,3-dimethyl-pyridin-2-one] registered an IC50 of 0.112 µM.

Compound `Cc1cc(-c2ccc3ncc(CN4CCOCC4)n3c2)cn(C)c1=O` [Compound 21, 1,3-dimethyl-5-[3-(morpholinomethyl)imidazo[1,2-a]pyridin-6-yl]pyridin-2-one] gave an IC50 of 0.816 µM. Compared with the last compound, the IC50 is about 7.3-fold higher.

Compound `Cc1cc(-c2ccc3ncc(NC4CCCC4)n3c2)cn(C)c1=O` [Compound 22, 5-[3-(cyclopentylamino)imidazo[1,2-a]pyridin-6-yl]-1,3-dimethyl-pyridin-2-one] gave an IC50 of 0.0098 µM. Compared with the last compound, the IC50 is about 83-fold lower.

The compound `Cc1cc(-c2ccc3ncc(NCC4CCCC4)n3c2)cn(C)c1=O` [Compound 23, 5-[3-(cyclopentylmethylamino)imidazo[1,2-a]pyridin-6-yl]-1,3-dimethyl-pyridin-2-one] displayed an IC50 of 0.0165 µM.

As for `Cc1nc2ccc(-c3cc(C)c(=O)n(C)c3)cn2c1Cc1ccccc1` [Compound 24, 5-(3-benzyl-2-methyl-imidazo[1,2-a]pyridin-6-yl)-1,3-dimethyl-pyridin-2-one], the IC50 is 0.0322 µM.

In the case of `Cc1cc(-c2ccc3ncc(COC4CCC4)n3c2)cn(C)c1=O` [Compound 25, 5-[3-(cyclobutoxymethyl)imidazo[1,2-a]pyridin-6-yl]-1,3-dimethyl-pyridin-2-one], the IC50 came to 0.174 µM.

Consider `Cc1cc(-c2ccc3ncc(CN4CCCCC4=O)n3c2)cn(C)c1=O` [Compound 26, 1,3-dimethyl-5-[3-[(2-oxo-1-piperidyl)methyl]imidazo[1,2-a]pyridin-6-yl]pyridin-2-one], for which half-maximal inhibition (IC50) was put at 0.492 µM. This IC50 lies about 2.8-fold higher than the previous one.

`Cc1cc(-c2ccc3ncc(Nc4ccccc4)n3c2)cn(C)c1=O` [Compound 30, 5-(3-anilinoimidazo[1,2-a]pyridin-6-yl)-1,3-dimethyl-pyridin-2-one] came in with an IC50 of 0.0249 µM.

Take `Cc1cc(-c2ccc3ncc(COCC(F)(F)F)n3c2)cn(C)c1=O` [Compound 34, 1,3-dimethyl-5-[3-(2,2,2-trifluoroethoxymethyl)imidazo[1,2-a]pyridin-6-yl]pyridin-2-one]: half-maximal inhibition (IC50) was put at 0.234 µM. Against the preceding compound, the IC50 is about 9.4-fold higher.

Take `Cc1cc(-c2ccc3ncc(S(=O)(=O)NC4CCOCC4)n3c2)cn(C)c1=O` [Compound 42, 6-(1,5-dimethyl-6-oxo-1,6-dihydropyridin-3-yl)-N-(tetrahydro-2H-pyran-4-yl)imidazo[1,2-a]pyridine-3-sulfonamide]: the IC50 was found to be 0.865 µM.

On to `Cc1cc(-c2ccc3ncc(S(=O)(=O)N4CCC[C@H]4C)n3c2)cn(C)c1=O` [Compound 45, (R)-1,3-dimethyl-5-(3-((2-methylpyrrolidin-1-yl)sulfonyl)imidazo[1,2-a]pyridin-6-yl)pyridin-2(1H)-one], for which it took 0.507 µM to reach half-maximal inhibition (IC50).

The compound `Cc1cc(-c2ccc3ncc(S(=O)(=O)N4CCC[C@@H]4C)n3c2)cn(C)c1=O` [Compound 46, (S)-1,3-dimethyl-5-(3-((2-methylpyrrolidin-1-yl)sulfonyl)imidazo[1,2-a]pyridin-6-yl)pyridin-2(1H)-one] had an IC50 of 0.178 µM. This IC50 lies about 2.8-fold lower than the previous one.

For `Cc1cc(-c2ccc3ncc(S(=O)(=O)C4CCCC4)n3c2)cn(C)c1=O` [Compound 49, 5-(3-(cyclopentylsulfonyl)imidazo[1,2-a]pyridin-6-yl)-1,3-dimethylpyridin-2(1H)-one], the IC50 amounted to 0.851 µM. This IC50 is about 4.8-fold higher than that of the compound before.

On to `CO[C@H]1CCN(S(=O)(=O)c2cnc3ccc(-c4cc(C)c(=O)n(C)c4)cn23)C1` [Compound 50, (S)-5-(3-((3-methoxypyrrolidin-1-yl)sulfonyl)imidazo[1,2-a]pyridin-6-yl)-1,3-dimethylpyridin-2(1H)-one], for which the IC50 was 2.37 µM. This IC50 is about 2.8-fold higher than that of the compound before.

Take `CO[C@@H]1CCN(S(=O)(=O)c2cnc3ccc(-c4cc(C)c(=O)n(C)c4)cn23)C1` [Compound 51, (R)-5-(3-((3-methoxypyrrolidin-1-yl)sulfonyl)imidazo [1,2-a]pyridin-6-yl)-1,3-dimethylpyridin-2(1H)-one]: half-maximal inhibition (IC50) required 0.615 µM.

`Cc1nc2ccc(-c3cc(C)c(=O)n(C)c3)cn2c1Cc1ccccn1` [Compound 54, 1,3-dimethyl-5-[2-methyl-3-(2-pyridylmethyl)imidazo[1,2-a]pyridin-6-yl] pyridin-2-one] returned an IC50 of 0.151 µM.

Still in this test, the particulars now being: inhibition of C-Myc mRNA, 4 hours treatment.
Take `Cc1cc(-c2ccc3ncc(S(=O)(=O)N(C)C4CCOC4)n3c2)cn(C)c1=O` (single isomer, unassigned) [Compound 48, 6-(1,5-dimethyl-6-oxo-1,6-dihydropyridin-3-yl)-N-methyl-N-(tetrahydrofuran-3-yl)imidazo[1,2-a]pyridine-3-sulfonamide]: the IC50 was found to be 0.537 µM. That is a sub-micromolar value.

The compound `Cc1cc(-c2ccc3ncc(S(=O)(=O)NC4CCOC4)n3c2)cn(C)c1=O` (single isomer, unassigned) [Compound 53, 6-(1,5-dimethyl-6-oxo-1,6-dihydropyridin-3-yl)-N-(tetrahydrofuran-3-yl) imidazo[1,2-a]pyridine-3-sulfonamide] had an IC50 of 0.898 µM.

For `COC(c1ccccc1)c1cnc2ccc(-c3cc(C)c(=O)n(C)c3)cn12` (stereo not drawn) [Compound 6, 5-[3-[methoxy(phenyl)methyl]imidazo[1,2-a]pyridin-6-yl]-1,3-dimethyl-pyridin-2-one], the IC50 came out at 0.0913 µM.

`Cc1cc(-c2ccc3ncc(S(=O)(=O)NC4CCCOC4)n3c2)cn(C)c1=O` (stereo not drawn) [Compound 43, 6-(1,5-dimethyl-6-oxo-1,6-dihydropyridin-3-yl)-N-(tetrahydro-2H-pyran-3-yl)imidazo[1,2-a]pyridine-3-sulfonamide] had an IC50 of 0.253 µM.

In turn, `Cc1cc(-c2ccc3ncc(S(=O)(=O)NC4CCCOC4)n3c2)cn(C)c1=O` (stereo not drawn) [Compound 44, 6-(1,5-dimethyl-6-oxo-1,6-dihydropyridin-3-yl)-N-(tetrahydro-2H-pyran-3-yl)imidazo[1,2-a]pyridine-3-sulfonamide] displayed an IC50 of 0.597 µM. This IC50 lies about 2.4-fold higher than the previous one.

The term IC50 denotes the midpoint of a concentration-inhibition curve. High values mean a need for much substance, low ones inhibition by little substance.
